Data: ChEMBL document CHEMBL3132769, “Fragment growing to retain or alter the selectivity of anchored kinase hinge-binding fragments” (Medchemcomm, 2014)

Tests used:
[1] = target: MAP kinase-activated protein kinase 3 (Homo sapiens) (UniProt Q16644); assay: Inhibition of human full length MAPKAPK3 expressed in Escherichia coli cell assessed as substrate phosphorylation using fluorescence-labelled peptides as substrate at 95 uM after 90 mins by microfluidic peptide phosphorylation assay
[2] = target: T1, Calcium/calmodulin-dependent protein kinase type IV (Homo sapiens) (UniProt Q16566); assay: Inhibition of human full length CAMK4 expressed in baculovirus assessed as substrate phosphorylation using fluorescence-labelled peptides as substrate at 8 uM after 90 mins by microfluidic peptide phosphorylation assay
T1 sequence (whole entry): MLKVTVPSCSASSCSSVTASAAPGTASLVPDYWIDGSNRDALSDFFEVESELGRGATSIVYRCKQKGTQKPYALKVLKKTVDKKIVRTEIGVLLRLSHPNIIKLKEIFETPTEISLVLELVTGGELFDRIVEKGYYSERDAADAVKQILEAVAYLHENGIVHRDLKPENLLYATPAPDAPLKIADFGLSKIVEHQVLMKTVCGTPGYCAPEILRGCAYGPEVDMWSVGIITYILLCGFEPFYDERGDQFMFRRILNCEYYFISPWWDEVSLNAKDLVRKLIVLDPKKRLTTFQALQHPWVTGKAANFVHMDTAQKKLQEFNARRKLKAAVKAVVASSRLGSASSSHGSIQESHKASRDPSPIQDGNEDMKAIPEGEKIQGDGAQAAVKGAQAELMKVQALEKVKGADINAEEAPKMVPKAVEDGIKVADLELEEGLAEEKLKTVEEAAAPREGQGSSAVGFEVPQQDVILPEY

[3] = target: Rho-associated protein kinase 2 (Homo sapiens) (UniProt O75116); assay: Inhibition of human ROCK2 catalytic domain expressed in baculovirus assessed as substrate phosphorylation using fluorescence-labelled peptides as substrate at 2 uM after 90 mins by microfluidic peptide phosphorylation assay
Rho-associated protein kinase 2 (Homo sapiens), sequence (O75116 whole entry, looked up, the tested form may be a part): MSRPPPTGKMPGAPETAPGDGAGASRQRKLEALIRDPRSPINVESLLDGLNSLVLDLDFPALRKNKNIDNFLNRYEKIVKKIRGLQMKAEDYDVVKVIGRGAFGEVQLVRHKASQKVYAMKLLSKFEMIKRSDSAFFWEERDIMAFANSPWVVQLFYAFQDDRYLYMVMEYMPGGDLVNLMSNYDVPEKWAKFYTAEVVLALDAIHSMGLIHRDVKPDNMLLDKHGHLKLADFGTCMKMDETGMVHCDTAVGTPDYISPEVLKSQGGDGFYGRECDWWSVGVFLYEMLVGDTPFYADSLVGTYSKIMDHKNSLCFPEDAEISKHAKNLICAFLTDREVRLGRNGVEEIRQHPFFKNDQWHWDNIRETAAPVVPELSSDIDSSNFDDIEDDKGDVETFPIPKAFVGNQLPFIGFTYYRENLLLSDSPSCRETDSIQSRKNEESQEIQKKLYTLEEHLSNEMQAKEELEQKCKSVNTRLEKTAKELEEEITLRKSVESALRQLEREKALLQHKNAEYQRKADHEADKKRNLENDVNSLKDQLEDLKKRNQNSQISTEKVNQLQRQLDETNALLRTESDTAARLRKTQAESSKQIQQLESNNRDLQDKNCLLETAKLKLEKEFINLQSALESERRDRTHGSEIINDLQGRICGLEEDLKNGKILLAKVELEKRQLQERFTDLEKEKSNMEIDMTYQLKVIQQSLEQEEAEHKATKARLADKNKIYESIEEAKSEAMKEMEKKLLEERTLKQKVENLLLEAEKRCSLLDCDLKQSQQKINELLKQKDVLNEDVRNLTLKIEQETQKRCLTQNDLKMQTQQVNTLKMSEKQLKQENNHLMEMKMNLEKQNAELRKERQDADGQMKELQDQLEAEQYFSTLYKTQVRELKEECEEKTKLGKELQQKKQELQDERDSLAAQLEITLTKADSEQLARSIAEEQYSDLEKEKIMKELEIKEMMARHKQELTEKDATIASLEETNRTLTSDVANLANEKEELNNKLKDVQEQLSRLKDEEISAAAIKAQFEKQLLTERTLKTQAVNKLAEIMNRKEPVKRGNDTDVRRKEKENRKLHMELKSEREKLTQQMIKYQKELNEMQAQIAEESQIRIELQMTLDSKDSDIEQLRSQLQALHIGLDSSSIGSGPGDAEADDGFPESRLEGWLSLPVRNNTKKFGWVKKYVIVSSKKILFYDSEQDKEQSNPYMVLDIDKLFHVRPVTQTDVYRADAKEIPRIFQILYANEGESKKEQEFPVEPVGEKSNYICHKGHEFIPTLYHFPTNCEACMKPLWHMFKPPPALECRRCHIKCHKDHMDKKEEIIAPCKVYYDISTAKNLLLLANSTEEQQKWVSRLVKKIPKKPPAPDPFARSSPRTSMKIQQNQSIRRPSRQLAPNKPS

[4] = target: Mitogen-activated protein kinase 3 (Homo sapiens) (UniProt P27361); assay: Inhibition of human full length ERK1 expressed in Escherichia coli cell assessed as substrate phosphorylation using fluorescence-labelled peptides as substrate at 1000 uM after 90 mins by microfluidic peptide phosphorylation assay
Mitogen-activated protein kinase 3 (Homo sapiens), sequence (P27361 whole entry, the tested form may be a part): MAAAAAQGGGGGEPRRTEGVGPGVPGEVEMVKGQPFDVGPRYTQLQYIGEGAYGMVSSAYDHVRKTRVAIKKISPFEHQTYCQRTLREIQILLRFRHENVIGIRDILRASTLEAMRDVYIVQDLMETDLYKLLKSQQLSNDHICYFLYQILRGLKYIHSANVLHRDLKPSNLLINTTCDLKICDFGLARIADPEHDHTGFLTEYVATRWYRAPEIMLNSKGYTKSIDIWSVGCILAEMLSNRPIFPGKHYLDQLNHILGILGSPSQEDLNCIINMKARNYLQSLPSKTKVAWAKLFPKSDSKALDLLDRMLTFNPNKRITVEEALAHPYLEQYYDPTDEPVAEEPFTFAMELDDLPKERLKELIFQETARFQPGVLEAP

[5] = target: Protein kinase C theta type (Homo sapiens) (UniProt Q04759); assay: Inhibition of human truncated PKC theta expressed in baculovirus assessed as substrate phosphorylation using fluorescence-labelled peptides as substrate at […] after 90 mins by microfluidic peptide phosphorylation assay
Protein kinase C theta type (Homo sapiens), sequence (Q04759 whole entry, looked up, the tested form may be a part): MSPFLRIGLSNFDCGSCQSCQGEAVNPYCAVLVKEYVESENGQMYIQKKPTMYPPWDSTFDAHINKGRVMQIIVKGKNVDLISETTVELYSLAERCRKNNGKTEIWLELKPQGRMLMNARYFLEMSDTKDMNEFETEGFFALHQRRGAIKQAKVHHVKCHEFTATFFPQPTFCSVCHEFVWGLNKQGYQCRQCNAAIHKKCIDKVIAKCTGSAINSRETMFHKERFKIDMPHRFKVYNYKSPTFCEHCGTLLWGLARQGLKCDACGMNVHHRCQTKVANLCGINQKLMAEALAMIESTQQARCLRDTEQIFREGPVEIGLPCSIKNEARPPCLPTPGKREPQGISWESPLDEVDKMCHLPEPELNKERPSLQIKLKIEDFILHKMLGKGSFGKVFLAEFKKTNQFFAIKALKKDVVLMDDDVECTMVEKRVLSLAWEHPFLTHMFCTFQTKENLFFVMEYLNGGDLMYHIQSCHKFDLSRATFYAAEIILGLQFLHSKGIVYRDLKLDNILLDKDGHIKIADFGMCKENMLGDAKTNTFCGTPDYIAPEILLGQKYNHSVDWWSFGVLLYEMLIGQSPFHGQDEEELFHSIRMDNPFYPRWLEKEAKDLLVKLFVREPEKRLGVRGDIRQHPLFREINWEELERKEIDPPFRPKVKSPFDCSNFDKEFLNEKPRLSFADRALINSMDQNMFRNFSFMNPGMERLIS

[6] = target: T2, MAP kinase-activated protein kinase 5 (Homo sapiens) (UniProt Q8IW41); assay: Inhibition of human full length PRAK expressed in baculovirus assessed as substrate phosphorylation using fluorescence-labelled peptides as substrate at 420 uM after 90 mins by microfluidic peptide phosphorylation assay
T2 sequence (whole entry): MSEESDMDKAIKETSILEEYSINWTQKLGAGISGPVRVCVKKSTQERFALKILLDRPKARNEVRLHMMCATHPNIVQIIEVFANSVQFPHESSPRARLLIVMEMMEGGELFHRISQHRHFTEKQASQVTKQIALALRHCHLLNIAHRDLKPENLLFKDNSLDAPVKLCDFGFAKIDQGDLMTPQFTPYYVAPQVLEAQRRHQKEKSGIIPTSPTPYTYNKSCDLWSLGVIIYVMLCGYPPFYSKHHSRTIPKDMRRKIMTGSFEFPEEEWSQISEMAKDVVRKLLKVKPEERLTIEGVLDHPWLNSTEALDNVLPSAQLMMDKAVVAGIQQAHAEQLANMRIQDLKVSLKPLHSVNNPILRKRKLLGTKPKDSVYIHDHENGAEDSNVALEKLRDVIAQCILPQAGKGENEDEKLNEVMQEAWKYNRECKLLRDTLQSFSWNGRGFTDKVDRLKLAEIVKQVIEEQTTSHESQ

[7] = target: T3, Serine/threonine-protein kinase BRSK2 (Homo sapiens) (UniProt Q8IWQ3); assay: Inhibition of human truncated BRSK2 expressed in baculovirus assessed as substrate phosphorylation using fluorescence-labelled peptides as substrate at 9 uM after 90 mins by microfluidic peptide phosphorylation assay
T3 sequence (whole entry): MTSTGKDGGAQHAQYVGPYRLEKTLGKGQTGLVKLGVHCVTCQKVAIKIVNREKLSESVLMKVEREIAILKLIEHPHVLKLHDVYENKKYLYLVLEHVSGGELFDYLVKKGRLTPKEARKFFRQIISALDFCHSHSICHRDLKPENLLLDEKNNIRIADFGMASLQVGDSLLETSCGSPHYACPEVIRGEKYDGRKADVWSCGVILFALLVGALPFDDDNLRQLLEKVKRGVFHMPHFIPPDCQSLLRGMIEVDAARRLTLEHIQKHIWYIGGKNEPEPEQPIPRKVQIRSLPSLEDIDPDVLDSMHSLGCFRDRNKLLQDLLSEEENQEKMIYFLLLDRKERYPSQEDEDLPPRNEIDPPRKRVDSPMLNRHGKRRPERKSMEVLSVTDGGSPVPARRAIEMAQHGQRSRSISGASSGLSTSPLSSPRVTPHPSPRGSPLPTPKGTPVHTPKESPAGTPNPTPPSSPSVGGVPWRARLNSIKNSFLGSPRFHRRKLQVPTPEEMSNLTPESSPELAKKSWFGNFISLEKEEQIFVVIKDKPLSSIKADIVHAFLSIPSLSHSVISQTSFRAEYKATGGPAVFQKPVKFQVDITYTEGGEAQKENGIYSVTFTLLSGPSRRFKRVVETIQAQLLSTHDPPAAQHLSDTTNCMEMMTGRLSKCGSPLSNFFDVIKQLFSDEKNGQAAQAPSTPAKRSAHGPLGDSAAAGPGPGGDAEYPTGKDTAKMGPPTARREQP

[8] = target: T4, Serine/threonine-protein kinase Chk1 (Homo sapiens) (UniProt O14757); settings: 9 uM
T4 sequence (whole entry): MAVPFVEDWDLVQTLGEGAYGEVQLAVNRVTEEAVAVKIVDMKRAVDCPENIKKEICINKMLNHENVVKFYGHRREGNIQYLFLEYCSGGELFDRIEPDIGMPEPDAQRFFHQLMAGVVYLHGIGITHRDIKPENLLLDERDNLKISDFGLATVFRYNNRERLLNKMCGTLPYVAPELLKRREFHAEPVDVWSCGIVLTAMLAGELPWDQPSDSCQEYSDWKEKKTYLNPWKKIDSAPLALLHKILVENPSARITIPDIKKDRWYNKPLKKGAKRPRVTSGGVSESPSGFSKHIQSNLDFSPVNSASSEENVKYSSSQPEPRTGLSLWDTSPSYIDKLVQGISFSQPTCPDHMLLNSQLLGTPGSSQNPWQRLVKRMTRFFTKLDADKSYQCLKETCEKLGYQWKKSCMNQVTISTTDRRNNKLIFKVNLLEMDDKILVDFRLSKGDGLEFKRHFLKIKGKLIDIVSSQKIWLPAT
Description: Inhibition of human full length CHK1 expressed in baculovirus assessed as substrate phosphorylation using fluorescence-labelled peptides as substrate at 9 uM after 90 mins by microfluidic peptide phosphorylation assay

MAP kinase-activated protein kinase 3 (Homo sapiens), sequence (Q16644 whole entry, looked up): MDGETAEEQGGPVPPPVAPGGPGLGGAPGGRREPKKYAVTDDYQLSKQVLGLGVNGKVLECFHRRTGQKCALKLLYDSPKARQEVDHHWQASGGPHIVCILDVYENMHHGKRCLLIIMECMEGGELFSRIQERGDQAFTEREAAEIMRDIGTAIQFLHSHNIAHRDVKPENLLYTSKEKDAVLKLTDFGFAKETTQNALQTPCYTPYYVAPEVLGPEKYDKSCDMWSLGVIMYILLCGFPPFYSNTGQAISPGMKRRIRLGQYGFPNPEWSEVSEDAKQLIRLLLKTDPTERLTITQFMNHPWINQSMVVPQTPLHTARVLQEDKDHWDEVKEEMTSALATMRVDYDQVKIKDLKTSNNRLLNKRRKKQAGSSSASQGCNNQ

NCCc1ccc(-c2ncnc3[nH]cnc23)cc1 showed an inhibition [1] of 24%.

With NCC1CCN(c2ncnc3[nH]ccc23)CC1 the inhibition [2] was 43%.

For NC1CCN(c2ncnc3[nH]ccc23)CC1, the inhibition [3] was 44%.

c1cnc2[nH]ccc2c1 was tested, and the inhibition [4] was 36%.

COC(=O)c1cnc(Nc2cnc(C#N)cn2)cc1NCC1CCNCC1 gave an inhibition [5] of 4%.

c1nc(N2CCOCC2)c2nc[nH]c2n1 was tested, and the inhibition [6] was 40%.

Compound NCC1CN(c2ncnc3[nH]c4cnccc4c23)CCO1 (stereo not drawn) has an inhibition [7] of 36% and an inhibition [8] of 91%.
